This is an account of results in ChEMBL document CHEMBL2331414, “N-1, C-3 substituted indoles as 5-LOX inhibitors--in vitro enzyme immunoaasay, mass spectral and molecular docking investigations” (Bioorg Med Chem Lett, 2013).

In test [1] the target is T1, Polyunsaturated fatty acid 5-lipoxygenase (Homo sapiens) (UniProt P09917).
T1 sequence (whole entry): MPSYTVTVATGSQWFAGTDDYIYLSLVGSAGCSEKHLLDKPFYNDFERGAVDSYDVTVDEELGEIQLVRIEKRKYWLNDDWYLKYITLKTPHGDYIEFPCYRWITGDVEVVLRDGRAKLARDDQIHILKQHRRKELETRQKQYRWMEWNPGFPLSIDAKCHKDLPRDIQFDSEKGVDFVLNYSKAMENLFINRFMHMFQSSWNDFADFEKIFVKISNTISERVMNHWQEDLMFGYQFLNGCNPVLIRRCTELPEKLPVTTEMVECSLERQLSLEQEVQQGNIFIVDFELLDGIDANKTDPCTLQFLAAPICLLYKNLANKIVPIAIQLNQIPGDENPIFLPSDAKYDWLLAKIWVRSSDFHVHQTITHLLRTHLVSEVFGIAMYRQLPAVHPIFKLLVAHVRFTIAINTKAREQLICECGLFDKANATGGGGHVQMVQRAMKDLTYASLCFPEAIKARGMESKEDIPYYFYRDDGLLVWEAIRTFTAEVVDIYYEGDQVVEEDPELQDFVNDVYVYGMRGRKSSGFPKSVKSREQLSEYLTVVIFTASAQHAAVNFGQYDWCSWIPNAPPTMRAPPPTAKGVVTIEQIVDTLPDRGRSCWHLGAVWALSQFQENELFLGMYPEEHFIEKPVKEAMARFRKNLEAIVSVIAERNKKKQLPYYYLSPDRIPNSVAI
Briefly: Inhibition of 5LOX (unknown origin) using arachidonic acid as substrate at 1 uM after 5 mins by spectrophotometric analysis.

The target in test [2] is T2, Polyunsaturated fatty acid 5-lipoxygenase (Homo sapiens, UniProt P09917).
T2 sequence (P09917 whole entry): T1 sequence (whole entry)
The test can be described thus: Inhibition of 5LOX (unknown origin) using arachidonic acid as substrate after 5 mins by spectrophotometric analysis.

Test [3] addresses T1, Polyunsaturated fatty acid 5-lipoxygenase (Homo sapiens). Briefly: Inhibition of 5LOX (unknown origin) using arachidonic acid as substrate at 0.1 uM after 5 mins by spectrophotometric analysis.
Test [4] has the same target. Briefly: Inhibition of 5LOX (unknown origin) using arachidonic acid as substrate at 0.01 uM after 5 mins by spectrophotometric analysis.
The target is the same in test [5]. Briefly: Inhibition of 5LOX (unknown origin) using arachidonic acid as substrate at 10 uM after 5 mins by spectrophotometric analysis.

The inhibition is the percentage by which the read-out fell short of the control. Low values mean a weak effect, high ones a strong effect. What is called IC50 is the concentration at which inhibition is half-maximal.

Take `COc1ccc2c(c1)c(C(=O)C(=O)N1CCOCC1)cn2OS(=O)(=O)c1ccc(C)cc1`: the inhibition in test [1] is 53.8%; in test [3] it was 22%; in test [4], 4.7%; in test [5] it was 59.2%. The IC50 in test [2] stood at 1000 nM.
For `O=C(C(=O)N1CCCC1)c1cn(C(=O)c2ccccc2)c2ccccc12`, in that order: 54.2%, 17.4%, 6.8%, 59.6% and 1000 nM.
For the molecule `COc1ccc2c(c1)c(C(=O)C(=O)N1CCCC1)cn2C(=O)/C=C/c1ccccc1`, the inhibition worked out at 54.5% in test [1], 25.6% in test [3], 5.9% in test [4] and 68.6% in test [5]. For the same molecule, the IC50 in test [2] was 1000 nM.
As to `O=C(C(=O)N1CCOCC1)c1cn(C(=O)/C=C/c2ccccc2)c2ccccc12`, the inhibition was 40.7% in test [1], 21.1% in test [3], 2.5% in test [4] and 59.2% in test [5]. For the same molecule, in test [2], it took 5000 nM to reach half-maximal inhibition (IC50).
In the same order, the values of `Cc1ccc(S(=O)(=O)n2cc(C(=O)C(=O)N3CCCC3)c3ccccc32)cc1` are 63.8%, 27.8%, 0.9%, 95.4% and 600 nM.
